Test system: A549-NF-κB-SEAP reporter cells
Assay: NF-κB inflammation assay (PRINCESS NINA Instant Assay, SEAP reporter)
Type: cell-based
Conditions: stimulation with 2 ng/ml TNF-α; test concentration for the class not stated
Text: Inhibition of NF-κB-Induced Inflammation:
For the determination of anti-inflammatory activity of the compounds the PRINCESS® NINA Instant Assay from Cell Culture Service GmbH was used. This assay is based on recombinant A549-NF-κB-SEAP reporter cells preseeded in 96-well flat bottom plates. As the transfected reporter gene for SEAP (secreted embryonic alkaline phosphatase) is under transcriptional control of a NF-κB-responsive element, the expression of this reporter is activated upon stimulation with TNF-α. SEAP secretion into the culture supernatant can be detected by the chemiluminescent substrate CSPD®. Test compounds that inhibit the NF-κB activation show reduced SEAP activity and reduced luminescent readout.
Following 18 h of reactivation at 37° C., 5% CO2 and 90% relative humidity, the cells were incubated with 0.01 up to 100 μM of test compound for 4.5 h before stimulation with 2 ng/ml TNF-α. After stimulation with TNF-α for 22 h endogenous phosphatases were inactivated and CSPD® substrate was supplied for 40 min. SEAP activity then was quantified by measuring luminescence as relative light units (RLU) using a Tecan Ultra reader. Each data point was recorded in quadruplicates and EC50 values were calculated via fitting function and the Microsoft Excel Solver.

SMILES	Biological activity (NF-κB inflammation assay, inhibition)
N#Cc1ccc(CN2CCC(c3nc(C(=O)N4CCC(n5nnc6cc(C(F)(F)F)ccc65)CC4)cs3)CC2)cc1 [Cp. 1, 4-(4-{4-[4-(5-Trifluoromethyl-benzotriazol-1-yl)-piperidine-1-carbonyl]-thiazol-2-yl}-piperidin-1-yl-methyl)-benzonitrile]	++ (“++” means 80-90%)
N#Cc1ccc(CN2CCC(c3nc(C(=O)N4CCN(c5nsc6ccccc56)CC4)cs3)CC2)cc1 [Cp. 2, 4-{4-[4-(4-Benzo[d]isothiazol-3-yl-piperazine-1-carbonyl)-thiazol-2-yl]-piperidin-1-ylmethyl}-benzonitrile]	++ (“++” means 80-90%)
N#Cc1ccc(CN2CCC(c3nc(C(=O)N4CCC(n5cnc6ccccc65)CC4)cs3)CC2)cc1 [Cp. 3, 4-{4-[4-(4-Benzoimidazol-1-yl-piperidine-1-carbonyl)-thiazol-2-yl]-piperidin-1-ylmethyl}-benzonitrile]	++ (“++” means 80-90%)
COc1nc(OC)nc(N2CCC(c3nc(C(=O)N4CCN(c5nsc6ccccc56)CC4)cs3)CC2)n1 [Cp. 5, (4-Benzo[d]isothiazol-3-yl-piperazin-1-yl)-{2-[1-(4,6-dimethoxy-[1,3,5]triazin-2-yl)-piperidin-4-yl]-thiazol-4-yl}-methanone]	++ (“++” means 80-90%)
COc1nc(OC)nc(N2CCC(c3nc(C(=O)N4CCC(n5cnc6ccccc65)CC4)cs3)CC2)n1 [Cp. 6, (4-Benzoimidazol-1-yl-piperidin-1-yl)-{2-[1-(4,6-dimethoxy-[1,3,5]triazin-2-yl)-piperidin-4-yl]-thiazol-4-yl}-methanone]	++ (“++” means 80-90%)
COc1cc(N2CCC(c3nc(C(=O)N4CCN(c5nsc6ccccc56)CC4)cs3)CC2)nc(OC)n1 [Cp. 7, (4-Benzo[d]isothiazol-3-yl-piperazin-1-yl)-{2-[1-(2,6-dimethoxy-pyrimidin-4-yl)-piperidin-4-yl]-thiazol-4-yl}-methanone]	++ (“++” means 80-90%)
O=C(c1csc(C2CCN(c3ncnc4ccsc34)CC2)n1)N1CCN(c2nsc3ccccc23)CC1 [Cp. 8, (4-Benzo[d]isothiazol-3-yl-piperazin-1-yl)-[2-(1-thieno[3,2-d]pyrimidin-4-yl-piperidin-4-yl)-thiazol-4-yl]-methanone]	+++ (“+++” stands for 90-100% inhibition)

Reference: patent publication US20070219190A1, “Heterocyclic NF-kB Inhibitors” (4SC AG, priority 2006, published 2007)
